Data set [1] addresses Neuronal acetylcholine receptor; alpha2/beta4 (Rattus norvegicus, UniProt P12389+P12392). In words: Displacement of [3H]epibatidine from rat alpha2beta4 nAChR expressed in HEK293 cells. The class given is cell-based.
Data set [2] is described as follows: Lipophilicity, log D at pH 7.4. The class given is physicochemical. The following applies: buffer.
For data set [3], the target named is Neuronal acetylcholine receptor subunit alpha-2 (Rattus norvegicus, UniProt P12389+P12390). In words: Displacement of [3H]epibatidine from rat alpha2beta2 nAChR expressed in HEK293 cells. The class given is cell-based.
The target in data set [4] is Neuronal acetylcholine receptor subunit alpha-6 (Rattus norvegicus, UniProt P12390+P43143). Description: Displacement of [3H]epibatidine from rat alpha6beta2 nAChR expressed in HEK293 cells. The class given is cell-based.
Data set [5] deals with Neuronal acetylcholine receptor; alpha3/beta2 (Rattus norvegicus, UniProt P04757+P12390). In words: Displacement of [3H]epibatidine from rat alpha3beta2 nAChR expressed in HEK293 cells. The class given is cell-based.
Data set [6] can be described thus: Displacement of [3H]epibatidine from nAChR in rat cerebral cortex membrane. The class given is cell membranes.
For data set [7], the system named is Mus musculus. In words: Toxicity in CD1 mouse at 0.05 umol/kg, iv. The class given is organism-based. Conditions: in vivo.
In data set [8] the test system is Mus musculus. In words: Toxicity in CD1 mouse at 0.002 umol/kg, iv. The class given is organism-based. Conditions: in vivo.
The target of data set [9] is Neuronal acetylcholine receptor; alpha4/beta2 (Rattus norvegicus, UniProt P09483+P12390). Description: Displacement of [3H]epibatidine from rat alpha4beta2 nAChR expressed in HEK293 cells. The class given is cell-based.
The test system of data set [10] is Mus musculus. In words: Toxicity in CD1 mouse assessed as reduced locomotor activity at 2.0 umol/kg, iv. The class given is organism-based. Conditions: in vivo.
For data set [11], the target named is T1, Neuronal acetylcholine receptor; alpha4/beta2 (Homo sapiens, UniProt P17787+P43681). Description: Binding affinity to human alpha4beta2 nAChR expressed in human SHEP1 cells. The class given is cell-based.
Data set [12] has as its system Mus musculus. In words: Toxicity in CD1 mouse at 0.2 umol/kg, iv. The class given is organism-based. Conditions: in vivo.
The target in data set [13] is Neuronal acetylcholine receptor; alpha3/beta4 (Rattus norvegicus, UniProt P04757+P12392). Description: Displacement of [3H]epibatidine from rat alpha3beta4 nAChR expressed in HEK293 cells. The class given is cell-based.
The target of data set [14] is Neuronal acetylcholine receptor; alpha4/beta4 (Rattus norvegicus, UniProt P09483+P12392). In words: Displacement of [3H]epibatidine from rat alpha4beta4 nAChR expressed in HEK293 cells. The class given is cell-based.
Data set [15] relates to Mus musculus. In words: Toxicity in CD1 mouse assessed as mortality at 2.0 umol/kg, iv. The class given is organism-based. Conditions: in vivo.
The test system of data set [16] is Mus musculus. Description: Toxicity in CD1 mouse assessed as straub tail response at 1.3 umol/kg, iv. The class given is organism-based. The following applies: in vivo.
Data set [17] relates to Mus musculus. Description: Toxicity in CD1 mouse assessed as seizures at 1.3 umol/kg, iv. The class given is organism-based. Conditions: in vivo.
The subject of data set [18] is Mus musculus. In words: Toxicity in CD1 mouse assessed as hyperactivity at 3.3 umol/kg, iv. The class given is organism-based. The following applies: in vivo.
The subject of data set [19] is Mus musculus. In words: Toxicity in CD1 mouse assessed as straub tail response at 6.7 umol/kg, iv. The class given is organism-based. The following applies: in vivo.
The subject of data set [20] is Mus musculus. In words: Toxicity in CD1 mouse assessed as seizures at 6.7 umol/kg, iv. The class given is organism-based. Conditions: in vivo.
Data set [21] in a line: Half life in rhesus monkey thalamus. The class given is ADME, organism-based, Macaca mulatta.
Data set [22] relates to Mus musculus. Description: Toxicity in CD1 mouse assessed as straub tail response at 3.3 umol/kg, iv. The class given is organism-based. Conditions: in vivo.
The subject of data set [23] is Mus musculus. In words: Toxicity in CD1 mouse assessed as circling behavior at 0.8 umol/kg, iv. The class given is organism-based. The following applies: in vivo.
In data set [24] the test system is Mus musculus. Description: Toxicity in CD1 mouse assessed as straub tail response at 1.7 umol/kg, iv. The class given is organism-based. Conditions: in vivo.
For data set [25], the system named is Mus musculus. Description: Toxicity in CD1 mouse assessed as straub tail response at 0.8 umol/kg, iv. The following applies: in vivo. The class given is organism-based.
The test system of data set [26] is Mus musculus. In words: Toxicity in CD1 mouse assessed as circling behavior at 1.7 umol/kg, iv. The class given is organism-based. The following applies: in vivo.
Data set [27] has as its target T1, Neuronal acetylcholine receptor; alpha4/beta2. Description: Antagonist activity at human alpha4beta2 nAChR expressed in human SHEP1 cells assessed as reduction in peak amplitude at 1 uM by whole cell patch clamp technique in presence of acetylcholine. The class given is functional, cell-based. Also on record: scale not given: the % may be the effect or the level left.

Data set [28] in a line: Half life in iv dosed baboon thalamus. The class given is ADME, organism-based. Conditions: papio anubis.
The nature of data set [29]: Metabolic stability in CD1 mouse brain at 1.5 MBq, iv after 30 mins. The class given is ADME, organism-based. Conditions: read-out: Stability.
Data set [30] can be described thus: Metabolic stability in iv dosed baboon blood after 60 mins. The class given is ADME, organism-based. Conditions: papio anubis, read-out: Stability.
The nature of data set [31]: Metabolic stability in CD1 mouse blood at 1.5 MBq, iv after 30 mins. The following applies: read-out: Stability. The class given is ADME, organism-based.

The values below come from ChEMBL document CHEMBL1155821, “Discovery of (-)-7-methyl-2-exo-[3'-(6-[18F]fluoropyridin-2-yl)-5'-pyridinyl]-7-azabicyclo[2.2.1]heptane, a radiolabeled antagonist for cerebral nicotinic acetylcholine receptor (alpha4beta2-nAChR) with optimal positron emission tomography imaging properties” (J Med Chem, 2008).

Sequence of Neuronal acetylcholine receptor; alpha3/beta2 (P04757 whole entry): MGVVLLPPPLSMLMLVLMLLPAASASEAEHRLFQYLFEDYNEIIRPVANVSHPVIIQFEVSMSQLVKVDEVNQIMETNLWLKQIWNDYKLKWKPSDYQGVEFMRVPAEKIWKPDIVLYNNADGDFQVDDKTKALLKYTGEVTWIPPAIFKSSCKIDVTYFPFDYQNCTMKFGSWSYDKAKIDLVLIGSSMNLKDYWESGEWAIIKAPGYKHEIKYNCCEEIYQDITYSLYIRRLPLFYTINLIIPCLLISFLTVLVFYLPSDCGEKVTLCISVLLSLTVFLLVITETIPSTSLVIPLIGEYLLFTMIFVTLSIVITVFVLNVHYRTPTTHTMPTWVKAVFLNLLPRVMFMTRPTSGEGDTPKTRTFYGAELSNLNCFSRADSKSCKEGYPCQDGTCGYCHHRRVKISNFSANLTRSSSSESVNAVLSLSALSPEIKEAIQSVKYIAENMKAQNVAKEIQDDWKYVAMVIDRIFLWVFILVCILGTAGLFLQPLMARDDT
Sequence of Neuronal acetylcholine receptor; alpha3/beta2 (P12390 whole entry): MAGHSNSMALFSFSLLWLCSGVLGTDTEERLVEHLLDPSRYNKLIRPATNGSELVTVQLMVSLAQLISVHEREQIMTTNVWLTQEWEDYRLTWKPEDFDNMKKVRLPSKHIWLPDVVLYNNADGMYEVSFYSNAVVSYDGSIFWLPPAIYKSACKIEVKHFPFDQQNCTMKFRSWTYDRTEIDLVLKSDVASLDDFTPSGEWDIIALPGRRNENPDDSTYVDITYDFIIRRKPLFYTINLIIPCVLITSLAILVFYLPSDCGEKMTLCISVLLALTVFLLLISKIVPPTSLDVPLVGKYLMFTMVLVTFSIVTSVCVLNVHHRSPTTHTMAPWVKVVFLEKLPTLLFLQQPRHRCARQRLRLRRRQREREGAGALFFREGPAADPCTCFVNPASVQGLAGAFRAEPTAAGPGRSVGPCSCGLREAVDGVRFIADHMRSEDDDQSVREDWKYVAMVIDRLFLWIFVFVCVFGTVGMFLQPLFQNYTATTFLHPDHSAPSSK
Sequence of Neuronal acetylcholine receptor; alpha3/beta4 (P04757 whole entry): as the sequence (P04757 whole entry) above
Sequence of Neuronal acetylcholine receptor; alpha3/beta4 (P12392 whole entry): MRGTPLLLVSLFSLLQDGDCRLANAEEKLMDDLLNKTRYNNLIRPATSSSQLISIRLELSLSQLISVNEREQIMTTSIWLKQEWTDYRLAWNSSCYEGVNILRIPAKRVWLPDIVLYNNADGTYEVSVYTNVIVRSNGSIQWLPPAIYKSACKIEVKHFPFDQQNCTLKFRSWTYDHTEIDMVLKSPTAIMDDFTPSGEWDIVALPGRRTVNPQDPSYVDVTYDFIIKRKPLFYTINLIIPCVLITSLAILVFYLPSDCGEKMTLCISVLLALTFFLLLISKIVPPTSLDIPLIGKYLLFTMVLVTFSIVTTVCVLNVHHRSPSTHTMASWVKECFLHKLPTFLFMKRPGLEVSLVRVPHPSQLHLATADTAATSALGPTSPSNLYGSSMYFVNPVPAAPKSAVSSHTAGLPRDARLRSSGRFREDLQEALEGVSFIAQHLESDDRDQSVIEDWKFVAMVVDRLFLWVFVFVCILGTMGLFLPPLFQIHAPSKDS
Sequence of Neuronal acetylcholine receptor; alpha4/beta2 (Rattus norvegicus, UniProt P09483+P12390) (P09483 whole entry): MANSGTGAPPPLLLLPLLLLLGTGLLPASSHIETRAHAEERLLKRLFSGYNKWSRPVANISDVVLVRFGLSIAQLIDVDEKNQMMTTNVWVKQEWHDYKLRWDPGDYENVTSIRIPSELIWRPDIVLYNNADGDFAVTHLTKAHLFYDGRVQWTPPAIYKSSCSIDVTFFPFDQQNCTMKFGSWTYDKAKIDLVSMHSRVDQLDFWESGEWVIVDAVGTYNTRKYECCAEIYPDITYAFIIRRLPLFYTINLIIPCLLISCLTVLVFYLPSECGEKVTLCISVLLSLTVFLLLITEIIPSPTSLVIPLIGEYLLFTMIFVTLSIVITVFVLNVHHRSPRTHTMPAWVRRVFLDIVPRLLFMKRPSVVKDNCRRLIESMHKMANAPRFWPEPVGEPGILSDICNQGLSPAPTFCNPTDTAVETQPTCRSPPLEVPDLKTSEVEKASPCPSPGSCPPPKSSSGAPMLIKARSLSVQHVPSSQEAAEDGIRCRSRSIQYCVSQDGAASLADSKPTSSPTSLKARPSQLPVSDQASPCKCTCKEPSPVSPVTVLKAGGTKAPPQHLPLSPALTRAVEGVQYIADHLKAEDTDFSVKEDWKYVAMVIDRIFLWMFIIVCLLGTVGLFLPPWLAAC
Sequence of Neuronal acetylcholine receptor; alpha4/beta2 (Rattus norvegicus, UniProt P09483+P12390) (P12390 whole entry): as the sequence (P12390 whole entry) above
Sequence of Neuronal acetylcholine receptor; alpha4/beta4 (P09483 whole entry): as the sequence (P09483 whole entry) above
Sequence of Neuronal acetylcholine receptor; alpha4/beta4 (P12392 whole entry): as the sequence (P12392 whole entry) above
Sequence of Neuronal acetylcholine receptor subunit alpha-2 (P12389 whole entry, one chain of several): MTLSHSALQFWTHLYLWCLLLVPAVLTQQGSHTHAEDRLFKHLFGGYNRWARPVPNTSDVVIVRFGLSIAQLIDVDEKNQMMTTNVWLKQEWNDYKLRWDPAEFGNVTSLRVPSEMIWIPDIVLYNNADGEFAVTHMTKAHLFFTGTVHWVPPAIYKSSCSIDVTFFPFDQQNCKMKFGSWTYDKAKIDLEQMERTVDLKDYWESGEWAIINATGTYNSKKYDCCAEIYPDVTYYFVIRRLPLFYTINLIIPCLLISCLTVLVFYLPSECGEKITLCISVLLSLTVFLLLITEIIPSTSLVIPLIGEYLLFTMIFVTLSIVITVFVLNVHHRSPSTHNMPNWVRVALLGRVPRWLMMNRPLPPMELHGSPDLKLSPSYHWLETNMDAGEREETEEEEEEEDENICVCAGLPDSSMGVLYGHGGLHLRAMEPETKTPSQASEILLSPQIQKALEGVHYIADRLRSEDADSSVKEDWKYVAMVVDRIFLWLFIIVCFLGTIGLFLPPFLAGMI
Sequence of Neuronal acetylcholine receptor; alpha2/beta4 (P12389 whole entry): as the sequence (P12389 whole entry, one chain of several) above
Sequence of Neuronal acetylcholine receptor; alpha2/beta4 (P12392 whole entry): as the sequence (P12392 whole entry) above
Sequence of Neuronal acetylcholine receptor subunit alpha-6 (P43143 whole entry, one chain of several): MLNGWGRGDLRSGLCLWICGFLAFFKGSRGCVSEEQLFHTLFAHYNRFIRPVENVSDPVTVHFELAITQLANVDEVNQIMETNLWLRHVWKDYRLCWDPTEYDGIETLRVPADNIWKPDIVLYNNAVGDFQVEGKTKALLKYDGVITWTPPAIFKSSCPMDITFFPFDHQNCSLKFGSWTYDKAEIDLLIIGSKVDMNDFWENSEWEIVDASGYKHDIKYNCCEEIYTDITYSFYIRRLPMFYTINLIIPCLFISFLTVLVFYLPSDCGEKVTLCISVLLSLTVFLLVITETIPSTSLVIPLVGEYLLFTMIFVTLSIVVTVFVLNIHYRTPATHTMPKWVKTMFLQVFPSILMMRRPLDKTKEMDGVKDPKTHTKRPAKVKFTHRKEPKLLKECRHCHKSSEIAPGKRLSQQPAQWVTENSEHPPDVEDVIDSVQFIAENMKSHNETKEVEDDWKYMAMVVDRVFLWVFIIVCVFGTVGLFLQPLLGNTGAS
T1 sequence (P17787 whole entry): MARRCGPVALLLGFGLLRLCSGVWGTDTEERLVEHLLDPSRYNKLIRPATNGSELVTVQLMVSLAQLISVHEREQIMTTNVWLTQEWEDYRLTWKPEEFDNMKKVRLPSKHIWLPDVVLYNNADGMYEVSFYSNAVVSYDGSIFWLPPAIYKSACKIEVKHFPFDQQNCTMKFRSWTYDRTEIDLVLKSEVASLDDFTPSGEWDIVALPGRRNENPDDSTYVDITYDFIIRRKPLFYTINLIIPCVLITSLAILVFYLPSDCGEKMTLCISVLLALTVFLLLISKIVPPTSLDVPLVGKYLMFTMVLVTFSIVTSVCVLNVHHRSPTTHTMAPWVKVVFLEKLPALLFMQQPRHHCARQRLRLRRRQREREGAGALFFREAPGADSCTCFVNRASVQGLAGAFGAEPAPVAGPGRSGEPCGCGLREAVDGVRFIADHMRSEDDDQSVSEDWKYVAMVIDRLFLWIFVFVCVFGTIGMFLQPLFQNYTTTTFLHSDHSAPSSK
T1 sequence (P43681 whole entry): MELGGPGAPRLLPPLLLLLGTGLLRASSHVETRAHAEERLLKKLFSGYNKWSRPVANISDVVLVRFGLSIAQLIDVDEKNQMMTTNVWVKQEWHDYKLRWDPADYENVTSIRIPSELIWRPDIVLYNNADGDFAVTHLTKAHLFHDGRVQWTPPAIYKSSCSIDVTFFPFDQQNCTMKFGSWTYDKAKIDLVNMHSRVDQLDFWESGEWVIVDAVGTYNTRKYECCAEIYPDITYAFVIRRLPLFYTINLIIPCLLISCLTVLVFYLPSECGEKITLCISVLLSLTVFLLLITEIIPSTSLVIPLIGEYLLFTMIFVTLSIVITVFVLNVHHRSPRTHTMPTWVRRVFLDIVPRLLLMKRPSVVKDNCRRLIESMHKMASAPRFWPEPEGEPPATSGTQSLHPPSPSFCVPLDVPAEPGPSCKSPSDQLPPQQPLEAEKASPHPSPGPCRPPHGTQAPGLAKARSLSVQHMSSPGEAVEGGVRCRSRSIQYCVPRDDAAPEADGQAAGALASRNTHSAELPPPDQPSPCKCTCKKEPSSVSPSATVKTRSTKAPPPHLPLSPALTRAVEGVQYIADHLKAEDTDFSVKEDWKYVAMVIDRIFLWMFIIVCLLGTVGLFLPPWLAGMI

Regarding `CN1[C@@H]2CC[C@@H]1[C@@H](c1cncc(-c3cccc(F)n3)c1)C2` (stereo in doubt; (-)-6c) [listing 1 of 2 here], the Ki amounted to 7.8 nM in data set [1]; 0.26 nM in data set [3]; 0.95 nM in data set [4]; 4 nM in data set [5]; 0.31 nM in data set [6]; 0.26 nM in data set [9]. Moreover, the Ki in data set [13] is 310 nM; in data set [14], 6.2 nM. The same compound came in with a logD in [2] of 0.99. Besides, the Activity entry in the data set on Mus musculus [7], in the data set on Mus musculus [8], with Mus musculus [10] and in the data set with Mus musculus [12] was “Non-toxic” throughout. For the same compound, the affinity in [11], expressed as Kd, was 0.54 nM.
As for `CN1[C@@H]2CC[C@@H]1[C@@H](c1cncc(-c3ccnc(F)c3)c1)C2` (stereo in doubt; (+)-6a), the Ki in data set [6] was found to be 1.29 nM.
With `CN1[C@@H]2CC[C@@H]1[C@@H](c1cncc(-c3cccnc3F)c1)C2` (stereo in doubt; (-)-6b), the inhibitory constant (Ki) in data set [1] was 0.66 nM; in [3], 0.034 nM; in data set [4], 0.021 nM; in [5], 0.68 nM; in [6], 0.05 nM; in data set [9], 0.058 nM. For the same compound, the Ki in [13] worked out at 41 nM; in data set [14], 0.71 nM.
Turning to `CN1[C@@H]2CC[C@@H]1[C@@H](c1cncc(-c3ccnc(F)c3)c1)C2` (stereo in doubt; (-)-6a), the Ki in data set [1] was found to be 0.84 nM; in data set [3], 0.015 nM; in data set [4], 0.031 nM; in data set [5] it was 0.13 nM; in data set [6], 0.11 nM; in data set [9] it was 0.019 nM. The inhibitory constant (Ki) in data set [13] was found to be 39 nM; in data set [14], 0.58 nM.
Regarding `[18F]c1ccc(OC[C@@H]2CCN2)cn1`, the Activity result with Mus musculus [15], with Mus musculus [16] and with Mus musculus [17] was “Toxic” each time.
Consider `CN1[C@@H]2CC[C@@H]1[C@@H](c1cncc(-c3ccnc(F)c3)c1)C2` (racemic), for which the pH-dependent lipophilicity (logD) in data set [2] came to 0.74.
Regarding `[18F]c1ncccc1OC[C@@H]1CCN1`, the Ki in data set [1] was determined as 181 nM; in data set [3] it was 1.44 nM; in data set [5] it was 3.02 nM; in data set [13], 3680 nM. Besides, the Activity entry in the data set with Mus musculus [18], with Mus musculus [19], in the data set with Mus musculus [20], in the data set on Mus musculus [22], in the data set on Mus musculus [23] and in the data set on Mus musculus [24] was “Toxic” each time. The Activity entry in the data set on Mus musculus [25] and in the data set with Mus musculus [26] was “Toxic” throughout. For the same compound, the half-life in data set [21] amounted to 4.5 h.
For `CN1[C@@H]2CC[C@@H]1[C@@H](c1cncc(-c3cccnc3F)c1)C2` (racemic), the logD in data set [2] worked out at 0.67. For the same compound, affinity in data set [6] was put at a Ki of 0.16 nM.
For the compound `CN1[C@@H]2CC[C@@H]1[C@@H](c1cncc(-c3cccc(F)n3)c1)C2` (stereo in doubt; (-)-6c) [listing 2 of 2 here], the Activity in data set [27] was 14%.
Take `CN1[C@@H]2CC[C@@H]1[C@@H](c1cncc(-c3cccnc3[18F])c1)C2`: in data set [28], the half-life stood at 3.5 h.
`Clc1ccc(C2CC3CCC2N3)cn1` (centres undefined) [EPIBATIDINE] returned an inhibitory constant (Ki) in [6] of 0.045 nM.
Regarding `CN1C2CCC1C(c1cncc(-c3ccc(F)nc3)c1)C2` (single isomer, unassigned; (-)), the Ki in data set [1] worked out at 0.51 nM; in data set [3], 0.009 nM; in data set [4] it was 0.047 nM; in data set [5] it was 0.093 nM; in data set [6], 0.05 nM; in [9], 0.011 nM. The inhibitory constant (Ki) in data set [13] was found to be 30 nM; in [14], 0.31 nM. The same compound came in with a log distribution coefficient (logD) in [2] of 0.46.
The compound `CN1C2CCC1C(c1cncc(-c3ccc([18F])nc3)c1)C2` (single isomer, unassigned; (+)) registered a Ki in data set [6] of 2.1 nM.
The same measure, in the same setting: as for `CN1[C@@H]2CC[C@@H]1[C@@H](c1cncc(-c3cccc(F)n3)c1)C2` (stereo in doubt; (+)-6c), the figure is 4.67 nM; as for `CN1[C@@H]2CC[C@@H]1[C@@H](c1cncc(-c3cccnc3F)c1)C2` (stereo in doubt; (+)-6b), 7.35 nM.
Turning to `CN1[C@@H]2CC[C@@H]1[C@@H](c1cncc(-c3cccc([18F])n3)c1)C2`, the remaining at 0.5 h in data set [29] stood at 92.5%; in [31] it was 12.3%. In addition, the remaining at 1 h in data set [30] was found to be 14.9%. In data set [28], this compound displayed a half-life of 1.33 h.
